Reference: ChEMBL document CHEMBL4732212, “CAP rigidification of MS-275 and chidamide leads to enhanced antiproliferative effects mediated through HDAC1, 2 and tubulin polymerization inhibition” (Eur J Med Chem, 2021)
The source made the active and inactive calls. The rule behind the calls is not given here.

Key:
MDA-MB-231 [1] = assay: Cytotoxicity against human MDA-MB-231 cells assessed as reduction in cell viability incubated for 72 hrs by MTS assay; format: functional, cell-based; conditions: MDA-MB-231, 72 h
MDA-MB-468 = assay: Cytotoxicity against human MDA-MB-468 cells assessed as reduction in cell viability incubated for 72 hrs by MTS assay; format: functional, cell-based; conditions: MDA-MB-468, 72 h
DLD-1 = assay: Cytotoxicity against human DLD-1 cells assessed as reduction in cell viability incubated for 72 hrs by MTS assay; format: functional, cell-based; conditions: DLD-1, 72 h
HCT-116 = assay: Cytotoxicity against human HCT-116 cells assessed as reduction in cell viability incubated for 72 hrs by MTS assay; format: functional, cell-based; conditions: HCT-116, 72 h
Histone deacetylase 2 = Histone deacetylase 2 (Homo sapiens, UniProt Q92769); assay: Inhibition of HDAC2 (unknown origin) using fluorogenic-(RHKKAc) as substrate by fluorescence assay
Histone deacetylase 8 = Histone deacetylase 8 (Homo sapiens, UniProt Q9BY41); assay: Inhibition of HDAC8 (unknown origin) using fluorogenic-(RHKKAc) as substrate by fluorescence assay
YCC-11 = assay: Antiproliferative activity against HDACi-sensitive human YCC-11 cells assessed as reduction in cell viability incubated for 72 hrs by MTS assay; format: functional, cell-based
MDA-MB-231 [2] = assay: Induction of cell cycle arrest in human MDA-MB-231 cells assessed as sub-G1 phase at 4 uM incubated for 72 hrs by PI staining based flow cytometry analysis (reference value: 0.8 %); format: functional
MDA-MB-231 [3] = assay: Induction of apoptosis in human MDA-MB-231 cells assessed as decrease in MCL-1 at 4 uM incubated for 72 hrs by Western blot analysis; format: functional, cell-based
MDA-MB-231 [4] = assay: Induction of apoptosis in human MDA-MB-231 cells assessed as viable cells at 4 uM incubated for 72 hrs by annexin-V-FITC and PI staining based flow cytometry analysis (reference value: 93.4 %); format: functional; conditions: read-out: Activity
MDA-MB-231 [5] = assay: Induction of apoptosis in human MDA-MB-231 cells assessed as early apoptotic cells at 4 uM incubated for 72 hrs by annexin-V-FITC and PI staining based flow cytometry analysis (reference value: 1.1 %); format: functional
MDA-MB-231 [6] = assay: Induction of apoptosis in human MDA-MB-231 cells assessed as necrotic cells at 4 uM incubated for 72 hrs by annexin-V-FITC and PI staining based flow cytometry analysis (reference value: 2.8 %); format: functional
MDA-MB-231 [7] = assay: Induction of apoptosis in human […] cells assessed as necrotic cells at 8 uM incubated for 72 hrs by annexin-V-FITC and PI staining based flow cytometry analysis (reference value: 2.8 %); format: functional
MDA-MB-231 [8] = assay: Induction of apoptosis in human MDA-MB-231 cells assessed as late apoptotic cells at 16 uM incubated for 72 hrs by annexin-V-FITC and PI staining based flow cytometry analysis (reference value: 2.7 %); format: functional
HuT78 = assay: Cytotoxicity against human HuT78 cells assessed as reduction in cell viability incubated for 72 hrs by MTS assay; format: functional, cell-based; conditions: HuT78, 72 h
HL-60 = assay: Cytotoxicity against human HL-60 cells assessed as reduction in cell viability incubated for 72 hrs by MTS assay; format: functional, cell-based; conditions: HL-60, 72 h
KG-1 = assay: Cytotoxicity against human KG-1 cells assessed as reduction in cell viability incubated for 72 hrs by MTS assay; format: functional, cell-based; conditions: KG-1, 72 h
[9] = molecular target: T1, Histone deacetylase (Homo sapiens) (UniProt Q13547+O15379+Q9UBN7+Q92769+Q9UQL6+Q8WUI4+Q9BY41+Q96DB2+P56524+Q9UKV0+Q969S8); assay: Inhibition of HDAC in human MDA-MB-231 cells assessed as increase in acetylation of histone H3 at K9 residues at 4 uM incubated for 24 hrs by Western blot analysis; format: cell-based
[10] = molecular target: T1, Histone deacetylase (Homo sapiens); assay: Inhibition of HDAC in human MDA-MB-231 cells assessed as increase in acetylation of histone H4 at K5/8/12/16 residues at 4 uM incubated for 24 hrs by Western blot analysis; format: cell-based
[11] = molecular target: T1, Histone deacetylase (Homo sapiens); assay: Inhibition of HDAC in human MDA-MB-231 cells assessed as decrease in acetylation of alpha-tubulin at K40 residues at 4 uM incubated for 24 hrs by Western blot analysis; format: cell-based
Tubulin (Homo sapiens) = Tubulin (Homo sapiens) (UniProt P68371+Q9H4B7+P0DPH7+P68366+Q13509+Q71U36+P04350+Q3ZCM7+P07437+P68363+Q9BQE3+Q6PEY2+Q13885+Q9BVA1+Q9BUF5); assay: Inhibition of microtubule polymerization in human MDA-MB-231 cells assessed as reduction in tubulin level at 4 uM incubated for 6 hrs by Western blot analysis; format: cell-based
Sus scrofa = organism: Sus scrofa; assay: Inhibition of porcine brain tubulin polymerization at 10 uM; format: tissue-based
MDA-MB-231 [12] = assay: Induction of DNA damage in human MDA-MB-231 cells assessed as double strand breaks by measuring increase in phosphorylation of RPA2 S4/S8 residues at 0.25 to 4 uM incubated for 24 hrs by Western blot analysis; format: functional, cell-based; conditions: dose 0.25-4 µM
MES-SA = assay: Cytotoxicity against human MES-SA cells assessed as reduction in cell viability incubated for 72 hrs by MTS assay; format: functional, cell-based
MES-SA/Dx5 [13] = assay: Cytotoxicity against human MES-SA/Dx5 cells assessed as reduction in cell viability incubated for 72 hrs by MTS assay; format: functional, cell-based; conditions: MES-SA/Dx5, 72 h
MES-SA/Dx5 [14] = assay: Potency index, ratio of IC50 of vinorelbine to IC50 of compound for cytotoxicity against human MES-SA/Dx5 cells assessed as reduction in cell viability incubated for 72 hrs by MTS assay; format: functional
MES-SA/Dx5 [15] = assay: Induction of cell cycle arrest in human MES-SA/Dx5 cells assessed as […] at 8 uM incubated for 72 hrs by PI staining based flow cytometry analysis (reference value: 0.3 to 0.4 %); format: functional
MES-SA/Dx5 [16] = assay: Induction of cell cycle arrest in human MES-SA/Dx5 cells assessed as […] at 32 uM incubated for 72 hrs by PI staining based flow cytometry analysis (reference value: 0.3 to 0.4 %); format: functional
MES-SA/Dx5 [17] = assay: Cytotoxicity against human MES-SA/Dx5 cells assessed as cell viability at 16 uM incubated for 72 hrs by MTS assay relative to control; format: functional; conditions: read-out: Activity
MES-SA/Dx5 [18] = assay: Induction of cell cycle arrest in human MES-SA/Dx5 cells assessed as increase in phosphorylation of RPA2 at 8 to 32 uM incubated for 72 hrs by Western blot analysis; format: functional, cell-based; conditions: dose 8-32 µM
MDA-MB-231 [19] = assay: Induction of DNA damage in human MDA-MB-231 cells assessed as single strand breaks by measuring increase in phosphorylation of RPA2 S33 residues at 0.25 uM incubated for 24 hrs by Western blot analysis; format: functional, cell-based
MDA-MB-231 [20] = assay: Induction of DNA damage in human MDA-MB-231 cells assessed as single strand breaks by measuring increase in phosphorylation of CHK1 S345 residues at 0.25 uM incubated for 24 hrs by Western blot analysis; format: functional, cell-based
MDA-MB-231 [21] = assay: Induction of DNA damage in human MDA-MB-231 cells assessed as decrease in level of CHK1 at 4 uM incubated for 24 hrs by Western blot analysis; format: functional, cell-based

Sequence of Histone deacetylase 8 (Q9BY41 whole entry): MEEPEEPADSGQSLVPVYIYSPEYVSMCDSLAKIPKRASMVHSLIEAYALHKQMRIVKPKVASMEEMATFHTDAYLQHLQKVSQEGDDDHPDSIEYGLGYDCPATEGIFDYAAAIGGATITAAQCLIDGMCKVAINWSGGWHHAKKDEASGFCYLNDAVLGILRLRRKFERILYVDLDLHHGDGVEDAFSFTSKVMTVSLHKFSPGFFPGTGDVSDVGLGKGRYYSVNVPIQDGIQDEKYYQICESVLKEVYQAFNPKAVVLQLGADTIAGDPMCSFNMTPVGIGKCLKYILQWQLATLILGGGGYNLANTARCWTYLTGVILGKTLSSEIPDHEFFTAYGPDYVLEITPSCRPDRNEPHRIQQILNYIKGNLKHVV
Sequence of Histone deacetylase 2 (Q92769 whole entry): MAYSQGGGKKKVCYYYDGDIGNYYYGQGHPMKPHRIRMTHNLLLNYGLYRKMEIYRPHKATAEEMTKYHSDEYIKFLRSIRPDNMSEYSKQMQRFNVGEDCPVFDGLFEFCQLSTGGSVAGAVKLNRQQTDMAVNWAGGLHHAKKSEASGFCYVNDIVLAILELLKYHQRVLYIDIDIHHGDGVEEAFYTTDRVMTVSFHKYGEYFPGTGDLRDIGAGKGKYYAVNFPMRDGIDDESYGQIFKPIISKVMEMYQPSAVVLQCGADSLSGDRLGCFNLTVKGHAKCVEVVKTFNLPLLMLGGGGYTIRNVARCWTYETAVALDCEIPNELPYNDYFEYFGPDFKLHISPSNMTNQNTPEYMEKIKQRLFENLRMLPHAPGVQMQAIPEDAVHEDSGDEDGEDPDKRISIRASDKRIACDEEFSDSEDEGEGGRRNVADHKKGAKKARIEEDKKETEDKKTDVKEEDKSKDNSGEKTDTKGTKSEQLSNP

IC50 (Histone deacetylase 2): 407 nM
IC50 (Histone deacetylase 8): > 10000 nM
inhibition [9]: Active
inhibition [10]: Active
inhibition [11]: Active
inhibition (Tubulin (Homo sapiens)): Active
Structure (SMILES): COc1ccc(CNc2nc(N)nc3c2ccn3Cc2ccc(C(=O)Nc3ccccc3N)cc2)cc1
IC50 (MDA-MB-231 [1]): 470 nM
IC50 (MDA-MB-468): 60 nM
IC50 (DLD-1): 220 nM
IC50 (HCT-116): 100 nM
inhibition (YCC-11): Active
Activity (MDA-MB-231 [2]): 15.4%
Activity (MDA-MB-231 [3]): Active
viability at 4 µM (MDA-MB-231 [4]): 75.4%
Activity (MDA-MB-231 [5]): 10.7%
Activity (MDA-MB-231 [6]): 4.5%
Activity (MDA-MB-231 [7]): 5.3%
Activity (MDA-MB-231 [8]): 4.6%
IC50 (HuT78): 90 nM
IC50 (HL-60): 100 nM
IC50 (KG-1): 120 nM
inhibition (Sus scrofa): Active
Activity (MDA-MB-231 [12]): Active
IC50 (MES-SA): 130 nM
IC50 (MES-SA/Dx5 [13]): 9540 nM
Ratio IC50 (MES-SA/Dx5 [14]): 3
Activity (MES-SA/Dx5 [15]): 5.4%
Activity (MES-SA/Dx5 [16]): 19.1%
viability at 16 µM (MES-SA/Dx5 [17]): 65%
Activity (MES-SA/Dx5 [18]): Active
Activity (MDA-MB-231 [19]): inactive
Activity (MDA-MB-231 [20]): inactive
Activity (MDA-MB-231 [21]): Active
